This is an account of results in publication PMC8305768, “Design, Synthesis and Antiparasitic Evaluation of Click Phospholipids” (Molecules, 2021).

Where a name gives a salt, the structure may show the parent alone.

One data set deals with T1, CYP2C19 (Homo sapiens, UniProt P33261).
T1 construct: purchased Corning Inc; host or cells: baculovirus-infected insect cells
Put plainly: Cytochrome P450 inhibition assay (P450-Glo) CYP2C19. It is filed as in vitro ADME. To be noted: compounds 10 μM; miltefosine 10 μM or 1 μM. From the text: (§1) Cytochrome (CYP) P450 inhibition assay: These assays made use of microsomal preparations of CYP450 (1A2, 2C9, 2C19, 2D6 and 3A4) from baculovirus-infected insect cells (Corning Inc., Corning, NY, USA) and cytochrome c reductase (and cytochrome b5 for CYP450 3A4). For detection of CYP450 activity, the luminescence-based P450-Glo (Promega Corp., Madison, WI, USA) assay system was used that contained a luminogenic CYP450 substrate, lyophilized luciferin detection reagent and reconstitution buffer. The substrates were luciferin derivatives of CYP450-specific substrates that produce (4S)-4,5-dihydro-2-(6-hydroxybenzothiazolyl)-4-thiazolecarboxylic acid (D-luciferin) after cleavage by CYP450 (CYP450 3A4, luciferin-IPA; CYP450 2C19, luciferin-H EGE; CYP450 2C9, luciferin-H; CYP450 2D6, luciferin-ME EGE; CYP450 1A2, luciferin-1A2). CYP450 reactions were initiated by addition of the NADPH regeneration system to the enzyme–substrate mixture with the luciferin detection reagent stopping the reaction and the D-luciferin being converted to oxyluciferin under the production of light being proportional to the CYP450 activity. The CYP450 assays were performed using the Tecan Fluent liquid-handling automation platform (Tecan Group Ltd., Mannedorf, Switzerland) in the 384-well assay format. Compounds were added into an empty 384-well plate (100 nL/well in 1% v/v DMSO) using the Echo 550 Liquid Handler followed by the addition of 5 μL/well of the CYP450/substrate mixture and incubation for 30 min at 37 °C, after which the reaction was initiated by the addition of the 5 μL/well NADPH regeneration system. After a further 30-min incubation at 37 °C, the CYP450 reaction was stopped and the luciferase reaction was simultaneously initiated by addition of 10 μL/well of luciferin detection reagent, followed by an additional 30-min incubation at 37 °C. The luminescence signal was detected using an Infinite M1000 PRO plate reader (Tecan Group Ltd., Mannedorf, Switzerland). The NCs yielded 0% inhibition (1% v/v DMSO) and standard CYP450 specific inhibitors were used as positive controls, yielding 100% inhibition (CYP450 1A2, alpha-naphthoflavone; CYP450 2C9, sulfaphenazole; CYP450 2C19, troglitazone; CYP450 2D6, quinidine; CYP450 3A4, ketoconazole).
(§2) Data analysis: The screening data were obtained in triplicate and analysed using ActivityBase (IDBS, Guildford, UK), and outlier elimination in the control wells was performed using the 3-sigma method. Unless stated, dose–response experiments were performed in the 11-point format with the IC50 value, Hill slope, minimum signal and maximum signal for each dose–response curve obtained using a four-parameter logistic fit in the XE module of ActivityBase (IDBS).

Data set [1] relates to T. cruzi Y strain intracellular amastigotes. Put plainly: Activity against T. cruzi Y strain intracellular amastigotes (HG39 cell-line, parasite load). To be noted: Trypanosoma cruzi, read-out: Parassite Load Reduction (%). The data set is classed as cell-based. How it is done: T. cruzi epimastigotes (Y strain) were obtained by axenic cultivation in the LIT medium, supplemented with 10% FBS (Cultilab, São Paulo, Brazil). Cultures were maintained at […] for 4–5 days until they reached the log growth phase. New cultures were made every 4 days from the initial inoculum of 2 × 10^6 parasites/mL. T. cruzi trypomastigotes (Y strain) were maintained in culture by the infection of LLC-MK2 (ATTC-CCL7) epithelial cells. This cell line was cultured in […] tissue culture bottles (TPP) in RPMI 1640 medium (Gibco), (Thermo Fischer Scientific, Carlsbad, CA, USA) supplemented with 10% FBS (Gibco) (Thermo Fischer Scientific, Carlsbad, CA, USA). Cultures were maintained at 37 °C under 5% CO2 atmosphere, and RPMI 1640 medium and SFB were exchanged every 48 h. After confluence, the cultures were treated with 1 mL of a mixture of trypsin and versene (Sigma, São Paulo, Brazil) (0.2 and 0.002%, respectively). After 24 h, a subconfluence culture was infected with the trypomastigotes in the approximate proportion of 10:1 parasites/cell. From five to seven days post infection, the trypomastigote stage was obtained from the culture supernatant. Alternatively (Figure 2), T. cruzi strain Y was maintained as previously described.

For the next data set, the target named is T2, CYP1A2 (Homo sapiens, UniProt P05177).
T2 construct: purchased Corning Inc; host or cells: baculovirus-infected insect cells
T2 sequence (P05177 2-516 limits assumed): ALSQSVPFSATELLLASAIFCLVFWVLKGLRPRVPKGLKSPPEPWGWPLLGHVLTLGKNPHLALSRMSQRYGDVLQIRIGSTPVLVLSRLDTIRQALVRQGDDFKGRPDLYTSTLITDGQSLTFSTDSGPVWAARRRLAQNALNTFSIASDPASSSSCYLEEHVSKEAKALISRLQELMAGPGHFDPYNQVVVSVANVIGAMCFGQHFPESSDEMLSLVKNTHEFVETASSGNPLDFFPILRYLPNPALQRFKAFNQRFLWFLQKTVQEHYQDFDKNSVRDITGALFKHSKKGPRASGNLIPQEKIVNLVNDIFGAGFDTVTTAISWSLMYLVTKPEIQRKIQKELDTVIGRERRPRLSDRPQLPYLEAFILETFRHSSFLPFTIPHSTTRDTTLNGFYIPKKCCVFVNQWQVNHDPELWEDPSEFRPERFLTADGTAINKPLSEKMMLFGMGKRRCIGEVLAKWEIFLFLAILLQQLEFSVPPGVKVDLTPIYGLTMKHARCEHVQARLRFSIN
Put plainly: Cytochrome P450 inhibition assay (P450-Glo) CYP1A2. It is filed as in vitro ADME. To be noted: compounds 10 μM; miltefosine 10 μM or 1 μM.
Text: as §1, §2

A short description of data set [2]: Cytotoxicity against THP-1 macrophages (MTT). It is filed as cell-based. The following applies: human, PMA-differentiated THP-1 macrophages, read-out: Toxicity CC50 ± SD Or CC50 Interval Estimation. How it is done:
The effect of compounds selected compounds on THP-1-derived macrophages was assessed by the colorimetric MTT assay (3-(4,5-dimethylthiazol-2-yl)-2,5-diphenyl tetrazolium bromide). Briefly, 1 × 10^5 THP-1 cells/mL were differentiated into macrophages by addition of 20 ng/mL of phorbol-myristate 13-acetate (PMA, Sigma, Saint Louis, MI, USA) for 18 h, followed by replacement with fresh medium for 24 h. Cells were incubated with 100 µL of compounds ranging from 100 to 1 µM after dilution in the RPMI complete medium containing a maximum amount of 1% DMSO. After incubation for 72 h, the medium was removed and 100 µL of 0.5 mg/mL MTT solution diluted in RPMI was added. Plates were incubated for an additional 4 h to allow viable cells to convert MTT into a purple formazan product. Solubilization of formazan crystals was achieved by the addition of 2-propanol and absorbance was read at 570 nm using a Synergy 2 Multi-Mode Reader (Biotek, Winooski, VT, USA). Cytotoxicity was evaluated by the determination of the CC50 value (drug concentration that reduced the percentage of viable cells in 50%) and calculated by non-linear regression analysis using GraphPad Prism version 8.1.1 for Windows (GraphPad Software, San Diego, CA, USA).

T1 sequence (P33261 whole entry): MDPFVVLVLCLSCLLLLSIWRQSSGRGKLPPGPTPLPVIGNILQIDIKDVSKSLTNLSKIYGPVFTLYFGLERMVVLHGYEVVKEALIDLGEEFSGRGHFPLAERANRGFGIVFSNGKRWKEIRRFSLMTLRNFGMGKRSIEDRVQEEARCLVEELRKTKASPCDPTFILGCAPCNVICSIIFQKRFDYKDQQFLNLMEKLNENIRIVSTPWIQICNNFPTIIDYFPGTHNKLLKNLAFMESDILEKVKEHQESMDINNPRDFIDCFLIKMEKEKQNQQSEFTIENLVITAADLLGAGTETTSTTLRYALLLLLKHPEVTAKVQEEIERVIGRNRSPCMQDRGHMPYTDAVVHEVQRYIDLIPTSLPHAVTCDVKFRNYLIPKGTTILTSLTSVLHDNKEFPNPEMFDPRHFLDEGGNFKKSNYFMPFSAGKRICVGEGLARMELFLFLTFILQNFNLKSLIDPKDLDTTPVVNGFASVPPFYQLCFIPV

In general, CC50 refers to the concentration giving 50% cytotoxicity. For `CCCCCCCCCCCc1nnc(CCCCCCCCCCOP(=O)([O-])OCC[N+](C)(C)C)o1` [Compound 66, 2-(trimethylammonio)ethyl (10-(5-undecyl-1,3,4-oxadiazol-2-yl)decyl) phosphate inner salt], the “% inhibition ± SD at 10 μΜ CYP2C19” value on CYP2C19 is recorded as 23.97%. In addition, the inhibition of growth at 10 µM in data set [1] stood at 69.7%. Moreover, the “% inhibition ± SD at 10 μΜ CYP1A2” value on CYP1A2 is 12.37%. For the same molecule, the cytotoxic concentration (CC50) at 72 h in data set [2] is 25 to 50 µM.
On the same counts, the results for `CCCCCCCCCCCCCCCCOP(=O)([O-])OCC[N+](C)(C)C` [Miltefosine, hexadecylphosphocholine, reference compound] are 7.92%, 71.9%, “–20.62%” and 15.9 ± 1.2 µM.
